Drawing on patent publication US7875607B2, “7,8-bicycloakyl-chroman derivatives” (Ampere Life Sciences, Inc., priority 2004, dated 2011), this text covers EC50 and IC50 for 5 compounds.

In experiment [1] the test system is LTB4 production in heparinized whole blood. Description: Inhibition of LTB4 production in blood. The conditions noted are these: 20 μM A23187, read-out: EC50, protection against LTB4. It is filed as cell-based, rat or mouse. In outline:
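Heparinized rat or mouse whole blood preincubated with test agent 10 min at 37°C, then stimulated with calcium ionophore A23187 (20 μM final) for 30 min. Plasma methanol-precipitated and LTB4 measured by EIA; percent inhibition versus vehicle used to derive IC50.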

In experiment [2] the target is T1, porcine leukocyte 12/15-lipoxygenase (Sus scrofa, UniProt P16469).
T1 sequence (P16469 1-663): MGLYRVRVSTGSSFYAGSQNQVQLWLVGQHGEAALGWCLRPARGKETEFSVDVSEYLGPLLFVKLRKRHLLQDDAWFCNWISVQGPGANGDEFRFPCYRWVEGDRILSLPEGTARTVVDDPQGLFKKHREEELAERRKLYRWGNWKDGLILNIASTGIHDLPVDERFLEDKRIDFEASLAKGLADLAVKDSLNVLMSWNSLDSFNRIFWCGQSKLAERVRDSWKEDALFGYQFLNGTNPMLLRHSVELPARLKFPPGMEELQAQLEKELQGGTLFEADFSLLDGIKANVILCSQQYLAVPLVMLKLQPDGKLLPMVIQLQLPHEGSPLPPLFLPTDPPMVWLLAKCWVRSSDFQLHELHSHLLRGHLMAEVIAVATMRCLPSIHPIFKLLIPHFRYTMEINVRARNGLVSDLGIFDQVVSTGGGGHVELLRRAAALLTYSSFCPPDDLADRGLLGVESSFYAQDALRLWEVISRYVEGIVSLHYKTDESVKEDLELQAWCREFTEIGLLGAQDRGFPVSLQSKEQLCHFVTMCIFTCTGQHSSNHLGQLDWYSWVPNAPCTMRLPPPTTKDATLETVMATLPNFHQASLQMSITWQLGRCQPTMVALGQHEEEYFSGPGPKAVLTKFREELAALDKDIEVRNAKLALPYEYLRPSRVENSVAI
Description: 12/15-Lipoxygenase enzyme assay. It is filed as biochemical. The following applies: 70 μM arachidonic acid, pH 7.4; read-out: IC50, inhibition of 12/15-Lipoxygenase. As for the experimental part:
This procedure was used for measuring the enzymatic activity of porcine leukocyte 12/15-lipoxygenase using a calorimetric method based on the ferric oxidation of xylenol orange.
Porcine Leukocyte 12/15-lipoxygenase (Cayman Cat # 60300) was used in this assay. Test compound and/or vehicle was added to 1.3U 12/15-lipoxygenase in 50 mM Tris-HCl buffer, pH 7.4. The reaction was initiated by addition of 70 μM arachidonic acid in Tris-HCl buffer, pH 7.4, and terminated after a 10 minute incubation at room temperature by addition of FOX reagent (25 mM sulphuric acid, 100 μM xylenol orange, 100 μM iron (II) sulphate, methanol:water 9:1). The yellow color of acidified xylenol orange was converted to a blue color by the lipid hydroperoxide-mediated oxidation of Fe^2+ ions and the interaction of the resulting Fe^3+ ions with the dye. The complex was allowed to form during a 1 hour incubation at room temperature with shaking. Absorbance of the Fe^3+ complex was then measured at […] using a spectrophotometer.
Negative controls contained enzyme during the incubation step but substrate was not added until after the FOX reagent.
Compounds are screened at 5 concentrations in triplicate starting at 10 μM

Experiment [3] deals with LTB4 release from MPRO cell line. Description: LTB4-cell assay. It is filed as cell-based. The conditions noted are these: Mus musculus; differentiated MPRO cells, 1 μM A23187, 1 hour; read-out: EC50, inhibition of LTB4. The procedure, abridged:
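Mouse MPRO cells differentiated 72 hours with 10 μM all-trans retinoic acid, then stimulated 1 hour at 37° C with 1 μM A23187 plus compound (5 concentrations from 10 μM, quadruplicate). Supernatant LTB4 measured by competitive EIA; unstimulated cells as negative control.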

For the compound `CC1(C)CCc2cc(O)c3c(c2O1)C1CCC3CC1` [2,2-Dimethyl-3,4,7,8,9,10-hexahydro-7,10-ethano-2H-benzo[h]chromen-6-ol], the EC50 (as a rule, the concentration needed to bring the measured effect to its halfway point) in experiment [1] was no more than 10 µM; in experiment [3], no more than 5 µM. Besides, the IC50 in experiment [2] was no more than 10 µM.

In the case of `CC1(C)C=Cc2cc(O)c3c(c2O1)C1CCC3CC1` [2,2-Dimethyl-7,8,9,10-tetrahydro-7,10-ethano-2H-benzo[h]chromen-6-ol], the IC50 in experiment [2] was no more than 10 µM. For the same compound, in experiment [3], the EC50 is no more than 5 µM.

With `CC1(CCCCl)CCc2cc(O)c3c(c2O1)C1CCC3C1` (stereo not shown) [2-(3-Chloro-propyl)-2-methyl-3,4,7,8,9,10-hexahydro-7,10-methano-2H-benzo[h]chromen-6-ol], the figures for the concentration giving a half-maximal response (EC50) in experiment [1] and in experiment [3] were no more than 10 µM and no more than 5 µM, respectively.

Turning to `CC(C)CSCCCC1(C)CCc2cc(O)c3c(c2O1)C1CCC3C1` (stereo not shown) [2-(3-isobutylsulfanyl-propyl)-2-methyl-3,4,7,8,9,10-hexahydro-7,10-methano-2H-benzo[h]chromen-6-ol], the EC50 in experiment [1] was no more than 10 µM; in experiment [3], no more than 5 µM. Moreover, in experiment [2], the IC50 was no more than 10 µM.

Turning to `CC1(CCCSc2nccs2)CCc2cc(O)c3c(c2O1)C1CCC3C1` (stereo not shown) [2-Methyl-2-[3-(thiazol-2-ylsulfanyl)-propyl]-3,4,7,8,9,10-hexahydro-7,10-methano-2H-benzo[h]chromen-6-ol], the EC50 in experiment [1] is no more than 10 µM; in experiment [3], no more than 5 µM. In addition, the IC50 in experiment [2] is no more than 10 µM.
